This note sets out measurements from patent US9561228B2 (Celgene Avilomics Research, Inc., priority 2013, dated 2017).

The subject of this test is ERK1/2 phosphorylation of p90RSK in HT29 cells. Description: pRSK MSD Assay in HT29 cells. Particulars: Homo sapiens, HT-29, read-out: ERK1/ERK2 PRSK MSD HT29 EC50. It counts as cell-based. How it is done: The protocol below describes an assay to measure the kinase activity of ERK1/2 to phosphorylate a substrate, p90RSK, in the presence or absence of a test compound. This experiment was conducted using a Mesoscale Discovery plate. The day before the assay, HT29 cells were split and plated at 50,000 cells/well in complete growth media. After allowing cells to adhere, the media was removed and replaced with media containing 0.1% FBS and incubated overnight. Blank MSD plates (Mesoscale Discovery, Cat # L15XA3) were coated with 25 μl/well RSK capture antibody (BD Biosciences, Cat. #610226) and incubated at 4° C. overnight, then blocked with 150 μl of 3% BSA solution. The next day, the media from the cell culture plate was removed and replaced with 100 μl of media containing a test compound and incubated for 120 minutes at 37° C. The media was removed and replaced with 55 μl per well of lysis buffer with protease inhibitors (Roche Biosciences, Cat. #11836170001) and phosphatase inhibitors (Sigma-Aldrich, Cat. # P-0044 and P-5726), followed by incubation at 4° C. for 30 minutes. 50 μl of lysate was transferred to a blocked MSD plate, followed by incubation at room temperature for 2 hours under constant shaking. The plate was washed 3 times with MSD wash buffer (Mesoscale Discovery, Cat. # R617TX), and 25 μl/well phospho-RSK (pRSK) detection antibody (Cell Signaling Technology, Cat. #9335) was added with Sulfo-tagged detection antibody (Mesoscale Discovery, Cat. # R32AB-1) diluted in 1% BSA in MSD wash buffer. This mixture was incubated for 1 hour at room temperature under constant shaking. The plate was washed 3 times, and 150 μl 1×MSD read buffer was added, followed by signal detection in an MSD plate reader.

Regarding `C=CC(=O)N[C@H]1CCCC1Nc1nc(N[C@H]2CCCN(C(C)=O)C2)ncc1C(F)(F)F` (stereo in doubt) [Compound I-24, N-((1S,2S)-2-((2-(((S)-1-Acetylpiperidin-3-yl)amino)-5-(trifluoromethyl)pyrimidin-4-yl)amino)cyclopentyl)acrylamide], the EC50 is > 1 µM.

On to `Cc1ccc(C(N)=O)cc1Nc1ncc(Cl)c(Nc2ccccc2NC(=O)/C=C/CN(C)C)n1` [Compound I-218, (E)-3-((5-chloro-4-((2-(4-(dimethylamino)but-2-enamido)phenyl)amino)pyrimidin-2-yl)amino)-4-methylbenzamide], for which the EC50 is > 1 µM.

For `C=CC(=O)Nc1ccccc1Nc1nc(N[C@@H]2CCN(C(=O)OC)C2)ncc1C(F)(F)F` [Compound I-61, (R)-Methyl 3-((4-((2-Acrylamidophenyl)amino)-5-(trifluoromethyl)pyrimidin-2-yl)amino)pyrrolidine-1-carboxylate], the EC50 was > 1 µM.

Regarding `C=C(C)C(=O)Nc1ccccc1Nc1nc(Nc2cc(C(N)=O)ccc2C)ncc1Cl` [Compound I-217, 3-((5-chloro-4-((2-methacrylamidophenyl)amino)pyrimidin-2-yl)amino)-4-methylbenzamide], the EC50 was > 1 µM.

Regarding `C=C(C)S(=O)(=O)Nc1cc(C)ccc1Nc1nc(NC2CCC(=O)CC2)ncc1C(F)(F)F` [Compound I-53, N-(5-Methyl-2-((2-((4-oxocyclohexyl)amino)-5-(trifluoromethyl)pyrimidin-4-yl)amino)phenyl)prop-1-ene-2-sulfonamide], the EC50 is > 1 µM.

As for `CC(C)=CC(=O)c1ccccc1Oc1nc(Nc2ccc(F)cc2C)ncc1Cl` [Compound I-222, 1-(2-((5-chloro-2-((4-fluoro-2-methylphenyl)amino)pyrimidin-4-yl)oxy)phenyl)-3-methylbut-2-en-1-one], the EC50 was > 1 µM.

As for `C=CC(=O)Nc1ccccc1Nc1nc(N[C@@H]2CCN(C(=O)CO)C2)ncc1C(F)(F)F` [Compound I-62, (R)—N-(2-((2-((1-(2-Hydroxyacetyl)pyrrolidin-3-yl)amino)-5-(trifluoromethyl)pyrimidin-4-yl)amino)phenyl)acrylamide], the EC50 was > 1 µM.

For `C=CC(=O)Nc1ccccc1CNc1nc(N[C@H]2CCCN(C(=O)CO)C2)ncc1C(F)(F)F` [Compound I-45, (S)—N-(2-(((2-((1-(2-Hydroxyacetyl)piperidin-3-yl)amino)-5-(trifluoromethyl)pyrimidin-4-yl)amino)methyl)phenyl)acrylamide], the EC50 is > 1 µM.

For `C=CC(=O)Nc1cc(Cl)ccc1Nc1nc(Nc2cc(Cl)nc(OC)c2)ncc1Cl` [Compound I-247, N-(5-chloro-2-((5-chloro-2-((2-chloro-6-methoxypyridin-4-yl)amino)pyrimidin-4-yl)amino)phenyl)acrylamide], the EC50 fell in the range of 0.101 to 0.5 µM.

With `C=CC(=O)Nc1ccccc1Nc1nc(N[C@H]2CCCN(C(=O)OC)C2)ncc1C(F)(F)F` [Compound I-17, (S)-Methyl 3-((4-((2-acrylamidophenyl)amino)-5-(trifluoromethyl)pyrimidin-2-yl)amino) piperidine-1-carboxylate], the EC50 was 0.101 to 0.5 µM.

On to `C=CC(=O)Nc1cc(C)ccc1Nc1nc(N[C@H]2CCCN(C(=O)c3ccccc3)C2)ncc1C(F)(F)F` [Compound I-44, (S)—N-(2-((2-((1-Benzoylpiperidin-3-yl)amino)-5-(trifluoromethyl)pyrimidin-4-yl)amino)-5-methylphenyl)acrylamide], for which the EC50 was > 1 µM.

For the molecule `CC#CC(=O)N[C@@H]1CCCC[C@H]1Nc1nc(N[C@H]2CCCN(C(=O)CO)C2)ncc1C(F)(F)F` [Compound I-33, N-((1R,2R)-2-((2-(((S)-1-(2-Hydroxyacetyl)piperidin-3-yl)amino)-5-(trifluoromethyl)pyrimidin-4-yl)amino)cyclohexyl)but-2-ynamide], the EC50 is > 1 µM.

Take `C=CS(=O)(=O)N[C@@H]1CCCC[C@H]1Nc1nc(N[C@H]2CCCN(C(=O)CO)C2)ncc1C(F)(F)F` [Compound I-36, N-((1R,2R)-2-((2-(((S)-1-(2-Hydroxyacetyl)piperidin-3-yl)amino)-5-(trifluoromethyl)pyrimidin-4-yl)amino)cyclohexyl)ethenesulfonamide]: the EC50 lay in the range of 0.501 to 0.999 µM.

As to `C=CC(=O)Nc1ccccc1Nc1nc(N[C@H]2CCCN(C(=O)C3CC3)C2)ncc1Cl` [Compound I-136, (S)—N-(2-((5-chloro-2-((1-(cyclopropanecarbonyl)piperidin-3-yl)amino)pyrimidin-4-yl)amino)phenyl)acrylamide], the EC50 was 0.501 to 0.999 µM.

Take `CC#CC(=O)Nc1ccccc1Nc1nc(N[C@H]2CCCN(C(=O)CO)C2)ncc1C(F)(F)F` [Compound I-29, (S)—N-(2-((2-((1-(2-Hydroxyacetyl)piperidin-3-yl)amino)-5-(trifluoromethyl)pyrimidin-4-yl)amino)phenyl)but-2-ynamide]: the EC50 is > 1 µM.

`CC(C)=CC(=O)c1ccccc1Oc1nc(Nc2cc(C(N)=O)ccc2C)ncc1Cl` [Compound I-223, 3-((5-chloro-4-(2-(3-methylbut-2-enoyl)phenoxy)pyrimidin-2-yl)amino)-4-methylbenzamide]: the EC50 is > 1 µM.

On to `C=CC(=O)Nc1cc(C)ccc1Nc1nc(Nc2cc(Cl)nc(OC)c2)ncc1Cl` [Compound I-244, N-(2-((5-chloro-2-((2-chloro-6-methoxypyridin-4-yl)amino)pyrimidin-4-yl)amino)-5-methylphenyl)acrylamide], for which the EC50 fell in the range of 0.101 to 0.5 µM.

On to `C=CC(=O)N(C)c1ccccc1Nc1nc(Nc2cc(C(=O)NOC)ccc2C#N)ncc1Cl` [Compound I-197, 3-((5-chloro-4-((2-(N-methylacrylamido)phenyl)amino)pyrimidin-2-yl)amino)-4-cyano-N-methoxybenzamide], for which the EC50 was > 1 µM.

Take `CC(=O)N1CCC[C@H](Nc2ncc(C(F)(F)F)c(N[C@@H]3[C@H](C(N)=O)[C@H]4C=C[C@@H]3C4)n2)C1` [Compound I-309, (1R,2R,3S,4S)-3-((2-(((S)-1-acetylpiperidin-3-yl)amino)-5-(trifluoromethyl)pyrimidin-4-yl)amino)bicyclo[2.2.1]hept-5-ene-2-carboxamide]: the EC50 was > 1 µM.

For the molecule `CC(C)=CC(=O)c1ccccc1Oc1nc(Nc2cc(C(N)=O)ccc2C)ncc1C(N)=O` [Compound I-271, 2-((5-carbamoyl-2-methylphenyl)amino)-4-(2-(3-methylbut-2-enoyl)phenoxy)pyrimidine-5-carboxamide], the EC50 was > 1 µM.

With `C=C(C)S(=O)(=O)Nc1cc(F)ccc1Nc1nc(N[C@H]2CCCN(C(=O)CO)C2)ncc1C(F)(F)F` [Compound I-54, (S)—N-(5-Fluoro-2-((2-((1-(2-hydroxyacetyl)piperidin-3-yl)amino)-5-(trifluoromethyl)pyrimidin-4-yl)amino)phenyl)prop-1-ene-2-sulfonamide], the EC50 was > 1 µM.

In the case of `C=CC(=O)Nc1ccccc1Nc1nc(N[C@H]2CCCN(C(=O)C(C)C)C2)ncc1Cl` [Compound I-137, (S)—N-(2-((5-chloro-2-((1-isobutyrylpiperidin-3-yl)amino)pyrimidin-4-yl)amino)phenyl)acrylamide], the EC50 lay within 0.501 to 0.999 µM.

With `C/C=C/C(=O)Nc1ccccc1Nc1nc(Nc2cc(C(N)=O)ccc2C)ncc1Cl` [Compound I-219, (E)-3-((4-((2-(but-2-enamido)phenyl)amino)-5-chloropyrimidin-2-yl)amino)-4-methylbenzamide], the EC50 is > 1 µM.
